Reference: ChEMBL document CHEMBL1127612, “Maleimidoethyl 3-(tri-n-butylstannyl)hippurate: a useful radioiodination reagent for protein radiopharmaceuticals to enhance target selective radioactivity localization” (J Med Chem, 1994)

Assays:
[1] = tested on: Mus musculus; assay: Tested for biodistribution of radioactivity after 1 hr of intravenous injection in mice blood; type: ADME, organism-based; settings: in vivo
[2] = tested on: Mus musculus; assay: Tested for biodistribution of radioactivity after 30 min of intravenous injection in mice blood; type: ADME, organism-based; settings: in vivo, 0.5 h
[3] = tested on: Mus musculus; assay: Tested for biodistribution of radioactivity after 3h of intravenous injection in mice blood; type: ADME, organism-based; settings: in vivo
[4] = tested on: Mus musculus; assay: Tested for biodistribution of radioactivity after 6 hr of intravenous injection in mice blood; type: ADME, organism-based; settings: in vivo
[5] = tested on: Mus musculus; assay: Tested for biodistribution of radioactivity after 5 min of intravenous injection in mice liver; type: ADME, organism-based; settings: in vivo
[6] = tested on: Mus musculus; assay: Tested for biodistribution of radioactivity after 5 min of intravenous injection in mice neck; type: ADME, organism-based; settings: in vivo
[7] = tested on: Mus musculus; assay: Tested for biodistribution of radioactivity after 5 min of intravenous injection in mice spleen; type: ADME, organism-based; settings: in vivo
[8] = tested on: Mus musculus; assay: Tested for biodistribution of radioactivity after 5 min of intravenous injection in mice stomach; type: ADME, organism-based; settings: in vivo
[9] = tested on: Mus musculus; assay: Tested for biodistribution of radioactivity after 5 min of intravenous injection in mice kidneys; type: ADME, organism-based; settings: in vivo
[10] = tested on: Mus musculus; assay: Tested for biodistribution of radioactivity after 6 hr of intravenous injection in mice feces; type: ADME, organism-based; settings: in vivo
[11] = tested on: Mus musculus; assay: Tested for biodistribution of radioactivity after 6 hr of intravenous injection in mice intestines; type: ADME, organism-based, Intestine; settings: in vivo
[12] = tested on: Mus musculus; assay: Tested for biodistribution of radioactivity after 6 hr of intravenous injection in mice kidneys; type: ADME, organism-based, Kidney; settings: in vivo
[13] = tested on: Mus musculus; assay: Tested for biodistribution of radioactivity after 6 hr of intravenous injection in mice liver; type: ADME, organism-based; settings: in vivo
[14] = tested on: Mus musculus; assay: Tested for biodistribution of radioactivity after 6 hr of intravenous injection in mice neck; type: ADME, organism-based; settings: in vivo
[15] = tested on: Mus musculus; assay: Tested for biodistribution of radioactivity after 30 min of intravenous injection in mice neck; type: ADME, organism-based; settings: in vivo, 0.5 h
[16] = tested on: Mus musculus; assay: Tested for biodistribution of radioactivity after 30 min of intravenous injection in mice spleen; type: ADME, organism-based; settings: in vivo, 0.5 h
[17] = tested on: Mus musculus; assay: Tested for biodistribution of radioactivity after 30 min of intravenous injection in mice stomach; type: ADME, organism-based; settings: in vivo, 0.5 h
[18] = tested on: Mus musculus; assay: Tested for biodistribution of radioactivity after 3h of intravenous injection in mice intestines; type: ADME, organism-based, Intestine; settings: in vivo
[19] = tested on: Mus musculus; assay: Tested for biodistribution of radioactivity after 3h of intravenous injection in mice kidneys; type: ADME, organism-based, Kidney; settings: in vivo
[20] = tested on: Mus musculus; assay: Tested for biodistribution of radioactivity after 3h of intravenous injection in mice neck; type: ADME, organism-based; settings: in vivo
[21] = tested on: Mus musculus; assay: Tested for biodistribution of radioactivity after 3h of intravenous injection in mice spleen; type: ADME, organism-based; settings: in vivo
[22] = tested on: Mus musculus; assay: Tested for biodistribution of radioactivity after 3h of intravenous injection in mice stomach; type: ADME, organism-based; settings: in vivo
[23] = tested on: Mus musculus; assay: Tested for biodistribution of radioactivity after 1 hr of intravenous injection in mice intestines; type: ADME, organism-based, Intestine; settings: in vivo
[24] = tested on: Mus musculus; assay: Tested for biodistribution of radioactivity after 1 hr of intravenous injection in mice liver; type: ADME, organism-based; settings: in vivo
[25] = tested on: Mus musculus; assay: Tested for biodistribution of radioactivity after 6 hr of intravenous injection in mice spleen; type: ADME, organism-based; settings: in vivo
[26] = tested on: Mus musculus; assay: Tested for biodistribution of radioactivity after 6 hr of intravenous injection in mice stomach; type: ADME, organism-based; settings: in vivo
[27] = tested on: Mus musculus; assay: Tested for biodistribution of radioactivity after 6 hr of intravenous injection in mice urine; type: ADME, organism-based; settings: in vivo
[28] = tested on: Mus musculus; assay: Tested for biodistribution of radioactivity after 1 hr of intravenous injection in mice neck; type: ADME, organism-based; settings: in vivo
[29] = tested on: Mus musculus; assay: Tested for biodistribution of radioactivity after 1 hr of intravenous injection in mice spleen; type: ADME, organism-based; settings: in vivo
[30] = tested on: Mus musculus; assay: Tested for biodistribution of radioactivity after 1 hr of intravenous injection in mice stomach; type: ADME, organism-based; settings: in vivo
[31] = tested on: Mus musculus; assay: Tested for biodistribution of radioactivity after 24 hr of intravenous injection in mice feces; type: ADME, organism-based; settings: in vivo
[32] = tested on: Mus musculus; assay: Tested for biodistribution of radioactivity after 24 hr of intravenous injection in mice intestines; type: ADME, organism-based, Intestine; settings: in vivo
[33] = tested on: Mus musculus; assay: Tested for biodistribution of radioactivity after 24 hr of intravenous injection in mice kidneys; type: ADME, organism-based, Kidney; settings: in vivo
[34] = tested on: Mus musculus; assay: Tested for biodistribution of radioactivity after 24 hr of intravenous injection in mice liver; type: ADME, organism-based; settings: in vivo
[35] = tested on: Mus musculus; assay: Tested for biodistribution of radioactivity after 24 hr of intravenous injection in mice neck; type: ADME, organism-based; settings: in vivo
[36] = tested on: Mus musculus; assay: Tested for biodistribution of radioactivity after 24 hr of intravenous injection in mice spleen; type: ADME, organism-based; settings: in vivo
[37] = tested on: Mus musculus; assay: Tested for biodistribution of radioactivity after 24 hr of intravenous injection in mice stomach; type: ADME, organism-based; settings: in vivo
[38] = tested on: Mus musculus; assay: Tested for biodistribution of radioactivity after 30 min of intravenous injection in mice kidneys; type: ADME, organism-based; settings: in vivo, 0.5 h
[39] = tested on: Mus musculus; assay: Tested for biodistribution of radioactivity after 30 min of intravenous injection in mice lintestines; type: ADME, organism-based, Intestine; settings: in vivo, 0.5 h
[40] = tested on: Mus musculus; assay: Tested for biodistribution of radioactivity after 30 min of intravenous injection in mice liver; type: ADME, organism-based; settings: in vivo, 0.5 h
[41] = tested on: Mus musculus; assay: Tested for biodistribution of radioactivity after 3h of intravenous injection in mice liver; type: ADME, organism-based; settings: in vivo
[42] = tested on: Mus musculus; assay: Tested for biodistribution of radioactivity after 1 hr of intravenous injection in mice kidneys; type: ADME, organism-based, Kidney; settings: in vivo
[43] = tested on: Mus musculus; assay: Tested for biodistribution of radioactivity after 24 hr of intravenous injection in mice urine; type: ADME, organism-based; settings: in vivo
[44] = tested on: Mus musculus; assay: Tested for biodistribution of radioactivity after 24 hr of intravenous injection in mice blood; type: ADME, organism-based; settings: in vivo
[45] = tested on: Mus musculus; assay: Tested for biodistribution of radioactivity after 5 min of intravenous injection in mice blood; type: ADME, organism-based; settings: in vivo
[46] = tested on: Mus musculus; assay: Tested for biodistribution of radioactivity after 5 min of intravenous injection in mice intestines; type: ADME, organism-based, Intestine; settings: in vivo

CN[C@@H](CSC1CC(=O)N(CCOC(=O)CNC(=O)c2cccc(I)c2)C1=O)C(=O)O (stereo partly drawn)
Dose/g [1]: 0.24% | Dose/g [2]: 1.01% | Dose/g [3]: 0.09% | Dose/g [4]: 0.03% | Dose/organ [5]: 92.56% | Dose/organ [6]: 0.07% | Dose/organ [7]: 0.21% | Dose/organ [8]: 0.18% | Dose/organ [9]: 0.65% | Dose/organ [10]: 2.3% | Dose/organ [11]: 0.84% | Dose/organ [12]: 0.06% | Dose/organ [13]: 0.58% | Dose/organ [14]: 0.02% | Dose/organ [15]: 0.11% | Dose/organ [16]: 0.12% | Dose/organ [17]: 0.59% | Dose/organ [18]: 2.54% | Dose/organ [19]: 0.14% | Dose/organ [20]: 0.02% | Dose/organ [21]: 0.07% | Dose/organ [22]: 0.52% | Dose/organ [23]: 6.11% | Dose/organ [24]: 3.98% | Dose/organ [25]: 0.07% | Dose/organ [26]: 0.45% | Dose/organ [27]: 78.35% | Dose/organ [28]: 0.06% | Dose/organ [29]: 0.1% | Dose/organ [30]: 0.56% | Dose/organ [31]: 3.52% | Dose/organ [32]: 0.05% | Dose/organ [33]: 0.02% | Dose/organ [34]: 0.27% | Dose/organ [35]: 0.01% | Dose/organ [36]: 0.04% | Dose/organ [37]: 0.05% | Dose/organ [38]: 5.34% | Dose/organ [39]: 9.99% | Dose/organ [40]: 12.28% | Dose/organ [41]: 1.56% | Dose/organ [42]: 2.79% | Dose/organ [43]: 90.6% | Dose/g [44]: 0.02% | Dose/g [45]: 0.45% | Dose/organ [46]: 0.28%

CN[C@@H](CCCCN)C(=O)NC(=O)c1cccc(I)c1
Dose/g [1]: 0.28% | Dose/g [2]: 1.16% | Dose/g [3]: 0.11% | Dose/g [4]: 0.04% | Dose/organ [5]: 92.86% | Dose/organ [6]: 0.16% | Dose/organ [7]: 0.02% | Dose/organ [8]: 0.16% | Dose/organ [9]: 0.8% | Dose/organ [10]: 1.53% | Dose/organ [11]: 1.83% | Dose/organ [12]: 0.31% | Dose/organ [13]: 2.82% | Dose/organ [14]: 0.01% | Dose/organ [15]: 0.14% | Dose/organ [16]: 0.07% | Dose/organ [17]: 0.65% | Dose/organ [18]: 6.42% | Dose/organ [19]: 0.7% | Dose/organ [20]: 0.02% | Dose/organ [21]: 0.01% | Dose/organ [22]: 0.36% | Dose/organ [23]: 10.73% | Dose/organ [24]: 6.96% | Dose/organ [25]: 0.02% | Dose/organ [26]: 0.32% | Dose/organ [27]: 63.2% | Dose/organ [28]: 0.03% | Dose/organ [29]: 0.09% | Dose/organ [30]: 0.43% | Dose/organ [31]: 3.26% | Dose/organ [32]: 0.07% | Dose/organ [33]: 0.02% | Dose/organ [34]: 0.18% | Dose/organ [35]: 0.01% | Dose/organ [36]: 0.02% | Dose/organ [37]: 0.04% | Dose/organ [38]: 6.42% | Dose/organ [39]: 9.45% | Dose/organ [40]: 21.18% | Dose/organ [41]: 4.18% | Dose/organ [42]: 1.71% | Dose/organ [43]: 83.9% | Dose/organ [44]: 0.01% | Dose/g [45]: 0.95% | Dose/organ [46]: 0.41%

CCc1ccc(O)c(I)c1
Dose/g [1]: 5.14% | Dose/g [2]: 5.35% | Dose/g [3]: 1.4% | Dose/g [4]: 1.59% | Dose/organ [5]: 92.49% | Dose/organ [6]: 0.04% | Dose/organ [7]: 0.06% | Dose/organ [8]: 0.25% | Dose/organ [9]: 0.01% | Dose/organ [10]: 0.31% | Dose/organ [11]: 3.06% | Dose/organ [12]: 0.57% | Dose/organ [13]: 1.13% | Dose/organ [14]: 0.21% | Dose/organ [15]: 0.7% | Dose/organ [16]: 0.3% | Dose/organ [17]: 15.65% | Dose/organ [18]: 3.43% | Dose/organ [19]: 0.83% | Dose/organ [20]: 0.25% | Dose/organ [21]: 0.1% | Dose/organ [22]: 17.5% | Dose/organ [23]: 6.73% | Dose/organ [24]: 3.68% | Dose/organ [25]: 0.06% | Dose/organ [26]: 13.22% | Dose/organ [27]: 26.84% | Dose/organ [28]: 0.34% | Dose/organ [29]: 0.23% | Dose/organ [30]: 25.55% | Dose/organ [31]: 3.22% | Dose/organ [32]: 0.21% | Dose/organ [33]: 0.04% | Dose/organ [34]: 0.37% | Dose/organ [35]: 0.01% | Dose/organ [36]: 0.02% | Dose/organ [37]: 0.11% | Dose/organ [38]: 2.07% | Dose/organ [39]: 8.28% | Dose/organ [40]: 18.72% | Dose/organ [41]: 1.44% | Dose/organ [42]: 1.73% | Dose/organ [43]: 79.66% | Dose/g [44]: 0.12% | Dose/g [45]: 0.15% | Dose/organ [46]: 0.16%
